Earlier results in US20260130964A1, “PHARMACEUTICAL COMPOSITION COMPRISING HIGH PAY LOAD GINGER EXTRACT GRANULES AND PROCESS FOR PREPARATION THEREOF” (INDIA GLYCOLS LIMITED, priority 2022, published 2026).

Settings: in vivo, po

CCCCC[C@H](O)CC(=O)CCc1ccc(O)c(OC)c1 [Example 6-gingerol, 6-gingerol]
biological half-life: < 2 hrs
